Source: patent publication US20050209278A1, “Piperidinyl- and piperazinyl-sulfonylmethyl hydroxamic acids and their use as protease inhibitors” (priority 2002, published 2005)

Molecular target: T1, MMP-9 (Homo sapiens, UniProt P14780)
T1 construct: made in house; host or cells: MMP-9-transfected HT1080 cells (spent media)
Experiment: In vitro MMP inhibition, IC50 determination (fluorogenic substrate I)
Type: biochemical
Conditions: value in parentheses; read-out: MMP-9 (IC-50)
Method: Several hydroxamic acids and salts thereof were analyzed in in vitro assays to determine their ability to inhibit the MMP cleavage of peptide substrates. […] and IC50 constants were calculated from the assayed hydroxamic acid-MMP interactions. Human recombinant MMP-1, MMP-2, MMP-9, MMP-13, and MMP-14 were used in this assay. All enzymes were prepared in Assignee's laboratories following usual laboratory procedures. Protocols for the preparation and use of these enzymes are available in the scientific literature. See, e.g., Enzyme Nomenclature (Academic Press, San Diego, Calif., 1992) (and the citations therein). See also, Freije et al., “Molecular cloning and expression of collagenase-3, a novel human matrix metalloproteinase produced by breast carcinomas,” J Biol. Chem., 269(24), 16766-16773 (1994). The MMP-9 proenzyme was purified by gelatin Sepharose chromatography from spent media of MMP-9-transfected HT1080 cells provided by Dr. Howard Welgus of Washington University (St. Louis, Mo.). All MMPs were activated using 4-aminophenylmercuric acetate (“APMA”, Sigma Chemical, St. Louis, Mo.) or trypsin. MMP-9 also was activated using human recombinant MMP-3 (purified in Assignee's laboratory following standard cloning and purification techniques). […] Substrate (I) was purchased from Baychem (Redwood City, Calif.), and substrate II was prepared Assignee's laboratory. Substrate I was used in the IC50 determination assays, while substrate II was used in the Ki determination assays. In the absence of MMP inhibitory activity, either substrate is cleaved at the Gly-Leu peptide bond. […] The stock solutions of the assayed hydroxamic acids (or salts thereof) were prepared in 1% dimethyl sulfoxide (DMSO). […] The experiment controls contained the same amount of Buffer A/DMSO as the assayed sample, but contained no hydroxamic acid (or salt thereof). The assays from which the IC50 determinations were made were performed as follows. […] Louis, Mo.). The assayed hydroxamic acid samples were incubated in MicrofluorTM White Plates (Dynatech, Chantilly, Va.) and analyzed on a Perkin Elmer […] plate reader (Norwalk, Conn.). The excitation wavelength was 328 nm, and the emission wavelength-415 nm. […] As stated in the previous paragraph, samples containing varying concentrations of the same assayed hydroxamic acid were prepared. Inhibition was measured as a reduction in fluorescent intensity as a function of MMP inhibitor concentration. […] All values in Table 2 are given in nM units. The IC50 measurements are in parenthesis.

T1 sequence (P14780 107-707 limits assumed): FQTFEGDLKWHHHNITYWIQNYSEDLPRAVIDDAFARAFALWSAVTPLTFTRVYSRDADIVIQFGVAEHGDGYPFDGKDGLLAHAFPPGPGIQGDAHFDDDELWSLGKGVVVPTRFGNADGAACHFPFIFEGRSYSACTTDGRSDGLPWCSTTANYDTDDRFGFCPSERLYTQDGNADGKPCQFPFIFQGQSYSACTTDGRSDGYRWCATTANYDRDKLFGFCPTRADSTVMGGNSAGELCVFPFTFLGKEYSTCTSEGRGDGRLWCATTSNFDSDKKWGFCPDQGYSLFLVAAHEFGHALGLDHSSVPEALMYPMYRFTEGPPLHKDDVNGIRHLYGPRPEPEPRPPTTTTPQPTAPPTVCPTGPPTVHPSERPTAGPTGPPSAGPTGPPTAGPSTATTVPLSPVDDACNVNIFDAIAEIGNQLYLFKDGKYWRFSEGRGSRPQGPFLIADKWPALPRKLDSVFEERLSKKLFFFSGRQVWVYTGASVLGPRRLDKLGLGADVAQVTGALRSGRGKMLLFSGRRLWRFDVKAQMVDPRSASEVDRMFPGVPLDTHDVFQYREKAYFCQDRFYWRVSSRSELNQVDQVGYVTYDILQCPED

Row | SMILES | IC50
1 | CCCCOc1ccc(N2CCN(S(=O)(=O)C3(C(=O)NO)CCN(c4ccc(C)cc4)CC3)CC2)cc1 [Example 295] | 0.1 nM
2 | CCCCOc1ccc(N2CCN(S(=O)(=O)C3(C(=O)NO)CCN(C4CC4)CC3)CC2)cc1 [Example 301] | 0.6 nM
3 | C#CCN1CCC(C(=O)NO)(S(=O)(=O)N2CCN(c3ccc(OCCCC)cc3)CC2)CC1 [Example 303] | 0.3 nM
4 | CCCCOc1ccc(N2CCN(S(=O)(=O)C3(C(=O)NO)CCN(c4ccc(C)cc4)CC3)CC2)cc1F [Example 296] | 116 nM
5 | COCCOc1ccc(N2CCN(S(=O)(=O)C3(C(=O)NO)CCN(C4CC4)CC3)CC2)cc1F [Example 297] | 31.1 nM
6 | CCCCOc1ccc(N2CCN(S(=O)(=O)C3(C(=O)NO)CCN(CC4CC4)CC3)CC2)cc1 [Example 298] | 3 nM
